Converted amounts (≈) assume the structure as drawn.
Details: buffer; pH 7.4; 200.0 µM

SMILES | solubility kinetic [µg/mL]
O=C(N/N=C/c1ccc(O)c(O)c1)C1CC1 | > 33
O=C(OCc1cc2ccccc2[nH]c1=O)c1cccc([N+](=O)[O-])c1 | 0.8 (≈ 2.47 µM)
Cc1csc(NC(=O)CCCC(=O)O)c1-c1nc2ccccc2s1 | > 54.1
CCSc1nc(-c2cccs2)nc2ccccc12 | 0.3 (≈ 1.1 µM)
Cc1[nH]c2ccc(F)cc2c1CCN1C(=O)OC(C)(C)C1(C)O (stereo not drawn) | > 48.1
COc1ccccc1OCCCC(=O)NCc1ccco1 | > 43.4
Cc1cc(C)c(NC(=O)CCc2c(C)noc2C)c(C)c1 | > 43
Cc1ccccc1NC(=O)c1ccccc1-c1ccccc1 | 36.5 (≈ 127 µM)
Cc1ccc(CONC(=O)c2ccccc2)cc1 | > 36.2
CCOc1ccc2oc(=O)cc(CN3CCOCC3)c2c1 | 41.5 (≈ 143 µM)
C#CCOc1ccccc1C(N)=O | 25.3 (≈ 144 µM)
CCn1c(CN(C)c2ccccc2)nc2ccccc21 | > 39.8
CCCC(=O)Nc1ccc(NC(=O)c2cccc(OC)c2)cn1 | 8.7 (≈ 27.8 µM)
CS(=O)(=O)N1CCN=C1SCc1cccc(F)c1 | 42.6 (≈ 148 µM)
O=C(c1ccc(COc2ccccc2Cl)o1)N1CCOCC1 | 34.4 (≈ 107 µM)
Cc1noc(C)c1C(=O)NCc1ccccc1Br | 44.6 (≈ 144 µM)
O=C(COc1ccc(Cl)cc1Br)OCC(=O)c1ccc[nH]1 | 6 (≈ 16.1 µM)
COc1cc(Cl)c(C)cc1NC(=O)CSC1=NCCS1 | 11 (≈ 33.2 µM)
CCCn1c(CCl)nc2cc(S(=O)(=O)N3CCOCC3)ccc21 | 0.6 (≈ 1.68 µM)
COc1ccc(CCNC(=O)COc2ccc(C)nc2[N+](=O)[O-])cc1 | > 51.8
CCN(CC)S(=O)(=O)c1cccc(-c2cn3cccnc3n2)c1 | 11.1 (≈ 33.6 µM)
O=C(NC1CCCCC1)C1CCCN1S(=O)(=O)c1ccc(F)cc1 (stereo not drawn) | 8 (≈ 22.6 µM)

SMILES | solubility kinetic [µg/mL]
O=C(O)C1C2C=CC(C2)C1C(=O)NCc1ccccc1F (stereo not drawn) | > 43.4
Cc1cc(C(=O)OCC(=O)NC2(C#N)CCCCC2)c(C)o1 | > 45.7
OCCNc1nc(Cl)nc(NCc2ccco2)n1 | > 40.5
CCN(C(=O)c1ccc(Br)o1)C1CCS(=O)(=O)C1 (stereo not drawn) | > 50.4
Cl.c1ccc(C2CN3CCSC3=N2)cc1 (stereo not drawn) | > 36.1
COc1cc(OC)c(OC)cc1CNCc1ccco1 | 38.7 (≈ 140 µM)
O=Cc1c(C(=O)O)n(Cc2ccccc2F)c2ccccc12 | > 44.6
COC(=O)c1nn(-c2ccc(C)cc2)ccc1=O | > 36.6
COCCNc1nc(N)c([N+](=O)[O-])c(Nc2ccc(F)cc2)n1 | 0.9 (≈ 2.79 µM)
O=C(CNC(=O)c1cnccc1C(F)(F)F)c1cccc(Cl)c1 | 25.3 (≈ 73.8 µM)
CCC1CCC/C1=N\NC(=O)c1ccc(Cl)cc1 (stereo not drawn) | > 39.7
CCC(C)n1c(C)cc(C(N)=O)c1C (stereo not drawn) | 26.8 (≈ 138 µM)
CCN(CC(=O)Nc1ccc(C)c(F)c1)CC(=O)NC(C)C | > 46.4
O=C(O)CNc1ccc(S(=O)(=O)C(F)(F)F)cc1[N+](=O)[O-] | 44.7 (≈ 136 µM)
COc1cccc(CSc2nccn2C)c1 | > 35.1
CCC(NC(C)C)C(O)c1ccc(O)c(O)c1.CS(=O)(=O)O (stereo not drawn) | > 50.3
COc1cc(N=Cc2c(CO)cnc(C)c2O)cc(OC)c1OC | 49.2 (≈ 148 µM)
C=CCn1c(SCC(C)=O)nc2sc3c(c2c1=O)CCC3 | 4.6 (≈ 14.4 µM)
CCOc1ccccc1N1CCN(C(=O)c2cccs2)CC1 | 45.7 (≈ 144 µM)
Cc1ccc(Cl)cc1NC(=O)C1COc2ccccc2O1 (stereo not drawn) | < 0.7
Cc1ccc(/C=C(\C#N)C(=O)NC(C)c2ccccc2)o1 (stereo not drawn) | 8.6 (≈ 30.7 µM)
CCCNC(=O)Nc1cccc(NC(C)=O)c1 | > 35.3

SMILES | solubility kinetic [µg/mL]
CCOC(=O)C1CCCN(Cc2nc(C3CC3)no2)C1 (stereo not drawn) | 36.5 (≈ 131 µM)
CCOc1cc(/C=C2\SC(N)=NC2=O)ccc1O | 22.5 (≈ 85.1 µM)
CC(C)c1ccc(Nc2nc(Cl)nc(NCCO)n2)cc1 | 2.7 (≈ 8.77 µM)
COc1ccccc1N1CCN(c2nc(C)cc(C)c2C#N)CC1 | 10.4 (≈ 32.3 µM)
COc1cccc(CNc2ccccn2)c1O | > 34.5
O=S(=O)(c1ccc(NCc2ccc(F)cc2)nc1)N1CCCC1 | 3 (≈ 8.94 µM)
COc1ccc(/C=C/C(=O)OCC(=O)c2ccc[nH]2)cc1 | 5 (≈ 17.5 µM)
O=C(NCCOC(=O)c1ccc(F)cc1)c1ccc(F)cc1 | 10.4 (≈ 34.1 µM)
COCc1c(C(=O)OCC(=O)Nc2ccc(OC(F)F)cc2)oc2ccccc12 | 13.4 (≈ 33.1 µM)
CC(C)(C)N(Cc1ccccc1)C(=O)c1cccs1 | 1.7 (≈ 6.22 µM)
CCCCOc1ccc(/C=C(\C(=O)O)c2ccc(S(=O)(=O)N3CCCC3)s2)cc1 | > 65.3
CC1CCCN(C(=O)c2cc(-c3ccco3)nc3ccccc23)C1 (stereo not drawn) | > 48.1
COc1ccccc1NS(=O)(=O)c1cc(NC(=O)C2CCCO2)ccc1C (stereo not drawn) | > 58.6
CC(C)N(Cc1ccccc1)C(=O)COC(=O)c1cnc(Cl)c(Cl)c1 | 33.9 (≈ 88.9 µM)
C#CCOc1ccc(Cl)cc1/C=C1/C(=O)ON=C1C | > 41.4
COc1ccc(CNC(=O)c2cc(C(C)=O)c[nH]2)cc1 | 12.9 (≈ 47.4 µM)
CC(O)CNCCOc1ccccc1-c1ccccc1.O=C(O)C(=O)O (stereo not drawn) | > 54.2
COCCCNC(=O)/C(C#N)=C/c1ccc(F)cc1 | 38.4 (≈ 146 µM)
COc1ccc(C(=O)O)cc1S(=O)(=O)N1CCN(Cc2ccc3c(c2)OCO3)CC1 | > 65.2
CC(=O)N1CCN(CC(=O)Nc2ccc(C#N)c(Cl)c2)CC1 | > 48.1
COc1ccccc1C(=O)NC(=O)CSc1ccc(C)c(C)c1 | 14 (≈ 42.5 µM)
Cc1cccc(CCNCc2cc3ccc(C)cc3[nH]c2=O)c1 | 45.4 (≈ 148 µM)

SMILES | solubility kinetic [µg/mL]
CCCCn1c(N)c(N(C)C(=O)c2c(C)nn(-c3ccccc3)c2C)c(=O)[nH]c1=O | > 61.6
O=C(Nc1ccc(N2CCOCC2)cc1)c1cccc2ccccc12 | 2.7 (≈ 8.12 µM)
Cc1ccc(NC(=O)Nc2cccnc2)cc1Cl | 23.3 (≈ 89 µM)
CCCn1c(=N)n(CC(O)c2ccc(C)cc2)c2ccccc21.Cl (stereo not drawn) | > 51.9
Cc1cccc(C)c1NC(=O)N1CCC(C(=O)c2ccc(F)cc2)CC1 | 15.4 (≈ 43.5 µM)
O=C(O)c1ccc(/C=N/O)cc1 | > 24.8
O=C(NC1CCSC1)c1cccc(Cl)c1 (stereo not drawn) | > 36.3
O=C(NCc1ccc(F)cc1)C(Cc1ccccc1)n1cccc1 (stereo not drawn) | 32.2 (≈ 99.9 µM)
O=C(Cn1cccc(C(F)(F)F)c1=O)c1ccc(Cl)cc1 | > 47.4
O=C(Nc1cc(S(=O)(=O)Nc2ccccc2Cl)ccc1O)c1ccc(F)cc1F | 3.3 (≈ 7.52 µM)
Cc1cnc(CNC(=O)c2ccc3oc(C(C)C)nc3c2)[nH]1 | 38.2 (≈ 128 µM)
COc1ccc(CNC(=O)C2CCN(C(=O)c3ccco3)CC2)cc1 | 45.8 (≈ 134 µM)
Cc1cc(C)c(OCC(=O)OC(C)C(=O)NC2CC2)c(C)c1 (stereo not drawn) | > 45.8
N#Cc1c(Nc2ccccc2C(F)(F)F)s[nH]c1=O | > 42.8
CC1(c2ccc3ccccc3c2)NC(=O)NC1=O (stereo not drawn) | 29.3 (≈ 122 µM)
C=C(C)Cn1c(N2CCCC2)nc2c1c(=O)n(C)c(=O)n2C | 33.6 (≈ 111 µM)
Cn1nnc(NC(=O)c2ccc(Br)o2)n1 | > 40.8
CCC(C)Nc1nc(N)c([N+](=O)[O-])c(NCCO)n1 (stereo not drawn) | 39.6 (≈ 147 µM)
N#C/C(N)=C(/C#N)N=Cc1cccc(Cl)c1 | 4 (≈ 17.3 µM)
CC(CCc1ccccc1)NC(=O)CCC1CCCC1 (stereo not drawn) | 14.5 (≈ 53 µM)
O=C(NC1CCCCC1)c1ccc2[nH]c(=O)c(=O)[nH]c2c1 | > 43.1
COc1ccc2c(c1)c(C(C)=O)c(C)n2C | > 32.6

— PubChem BioAssay AID1996
